“Also recorded” adds a separate entry of the source.
Assays:
[1] = target: T1, Ikaros (Homo sapiens, UniProt Q13422+Q96SW2); assay: Ikaros degradation in the patient; assay type: in vivo; conditions: DLBCL patient, 300 mg
T1 construct: peripheral blood was obtained from all patients for baseline and post Compound 149 therapy assessment of BTK and Ikaros degradation; endogenous in cells; host or cells: peripheral blood cells of a DLBCL patient
Method: Following informed consent, peripheral blood was obtained from all patients for baseline and post Compound 149 therapy assessment of BTK and Ikaros degradation. Patient blood (5 mL) was drawn and immediately fixed in a 5 mL CytoChex™ BCT tube and stored at ambient temperature until assessment via flow cytometry. Blood samples were analyzed within 3 days post sample collection at Precision for Medicine. Additional blood was also drawn into 8 mL BD Vacutainer® CPT™ Cell Preparation Tube with Sodium Citrate. Peripheral blood mononuclear cells (PBMCs) were processed, and viability frozen according to manufacturer's protocol. The patient's response was checked at 8 weeks and 16 weeks. […] Gradual BTK degradation was observed until day 8 day of receiving the 300 mg dose of Compound 149, wherein the maximum BTK degradation was achieved on the 8th day. Consistent with its design, Compound 149 also degraded Ikaros and Aiolos which is responsible for the compound's immunomodulatory activity. […] In the 16-week assessment image, maximum standard uptake value (Max SUV) reduced from 17.6 at screening to 2.5 at the 16-week assessment time with the Deauville five-point scale (5PS; Barrington et al., 2010, Eur J Nucl Med Mol Imaging 37 (10): 1824-33) reducing from 5 to 2.

[2] = test system: patients with CLL; assay: Efficacy evaluations in CLL patients; assay type: in vivo, human
Method: (§1) Patients were treated at four different dosage levels of Compound 149: dose level 1 (100 mg), dose level 2 (200 mg), dose level 3 (300 mg), and dose level 4 (400 mg). The objective of the study was to assess safety and tolerability, to identify maximum tolerated dose, and to evaluate PK/PD.
Patients evaluated in this study were treated for diseases or disorders selected from the group consisting of: chronic lymphocytic leukemia (CLL) with BTK C481 mutation (n 20); CLL without BTK C481 mutation (n˜20); mantle cell lymphoma (MCL), marginal zone lymphoma (MZL), Waldenstrom's macroglobulinemia (WM) (n˜20); follicular lymphoma (FL) (n˜20); and diffuse large B cell lymphoma (DLBCL) (n˜20). Heavily pretreated patient population, including double-refractory CLL patients.
Data shown in FIG. 6 confirms that Compound 149 is a potent BTK degrader to solve inhibitor resistance observed with prior therapy.

[3] = test system: novel BTK mutations emerging post BTKi-treatment; assay: Degradation of novel BTK mutations emerging post BTKi-treatment (FIG. 6); assay type: cell-based; conditions: multiple novel BTK mutations emerging post BTKi-treatment
[4] = Plasma concentrations of compound 149 after once daily oral dosing; assay type: in vivo, human; conditions: all patients, once daily oral 100 mg or 200 mg
Method: (§2) Compound 149 was administered to human patients in a Phase 1a/lb trial investigating safety and tolerability in relapsed and refractory B cell malignancies. Compound 149 was administered as a once daily oral dose first in an accelerated Phase 1a dose escalation starting at 100 mg on Day 1. The first dose levels are explored in a single patient cohort until a grade 2 adverse event has been observed. Thereafter, a traditional 3+3 escalation design is used. This 100 mg starting dose was predicted to provide similar exposure as that observed in non-human primate studies. Once a dose is selected based on all safety, efficacy, pharmacokinetic, and pharmacodynamic data available, the trial will expand in up to five expansion cohorts.

[5] = Safety and tolerability in patients with relapsed and refractory B cell malignancies; assay type: in vivo; conditions: for Anemia, Grade ≥ 3 / Clostridium difficile colitis, Grade ≥ 3 / Clostridium difficile infection, Grade ≥ 3 / Cognitive disorder, Grade ≥ 3 / Dyspnea, Grade ≥ 3 / Hypertension, Grade ≥ 3 / Neutropenia, Grade ≥ 3 / Pain in extremity, Grade ≥ 3 / Upper resp. tract infection, Grade ≥ 3: all patients
Method: as §2, §1
Safety population included 19 subjects, and data is summarize in Table 6 below. Two subjects were assigned to the 100 mg cohort but treatment was not entered in the electronic data capture (EDC) at time of extract.

[6] = test system: patient with non-GCB (ABC subtype) DLBCL; assay: Response of a patient with non-GCB (ABC subtype) DLBCL (Lugano criteria, FDG-PET CT scan); assay type: in vivo, human; conditions: 300 mg
Method: A heavily pre-treated patient with non-GCB (ABC subtype) DLBCL was enrolled in Compound 149 phase 1 dose-escalation. The patient was treated at a single dosage level of Compound 149: […] (300 mg) for a period of 5 months and ongoing. The objective of the study was to assess safety and tolerability, to identify maximum tolerated dose, and to evaluate PK/PD.
(§3) The patient's response was checked at 8 weeks and 16 weeks. […] Gradual BTK degradation was observed until day 8 day of receiving the 300 mg dose of Compound 149, wherein the maximum BTK degradation was achieved on the 8th day. Consistent with its design, Compound 149 also degraded Ikaros and Aiolos which is responsible for the compound's immunomodulatory activity. […] In the 16-week assessment image, maximum standard uptake value (Max SUV) reduced from 17.6 at screening to 2.5 at the 16-week assessment time with the Deauville five-point scale (5PS; Barrington et al., 2010, Eur J Nucl Med Mol Imaging 37 (10): 1824-33) reducing from 5 to 2.

[7] = target: T2, Aiolos (Homo sapiens, UniProt Q96SW2+Q9UKT9); assay: Aiolos degradation in the patient; assay type: in vivo; conditions: DLBCL patient, 300 mg
T2 construct: Compound 149 also degraded Ikaros and Aiolos; endogenous in cells
Method: as §3

[8] = test system: lymphoma cells harboring BTK-C481S mutation; assay: Killing of lymphoma cells harboring BTK-C481S mutation (FIG. 6); assay type: cell-based

T1 sequence (Q13422 whole entry): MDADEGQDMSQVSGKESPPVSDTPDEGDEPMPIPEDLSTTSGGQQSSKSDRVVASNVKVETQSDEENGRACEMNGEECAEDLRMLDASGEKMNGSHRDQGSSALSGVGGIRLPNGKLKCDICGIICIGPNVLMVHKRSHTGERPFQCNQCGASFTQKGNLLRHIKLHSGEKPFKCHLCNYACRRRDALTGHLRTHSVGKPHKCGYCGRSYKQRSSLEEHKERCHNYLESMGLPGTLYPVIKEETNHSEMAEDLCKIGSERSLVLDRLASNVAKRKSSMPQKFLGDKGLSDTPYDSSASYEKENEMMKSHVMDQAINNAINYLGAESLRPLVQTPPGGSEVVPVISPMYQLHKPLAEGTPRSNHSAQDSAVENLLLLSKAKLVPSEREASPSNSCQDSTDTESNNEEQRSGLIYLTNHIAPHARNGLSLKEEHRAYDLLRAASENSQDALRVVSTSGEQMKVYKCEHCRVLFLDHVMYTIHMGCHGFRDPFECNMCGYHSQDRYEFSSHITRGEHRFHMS
T1 sequence (Q96SW2 whole entry): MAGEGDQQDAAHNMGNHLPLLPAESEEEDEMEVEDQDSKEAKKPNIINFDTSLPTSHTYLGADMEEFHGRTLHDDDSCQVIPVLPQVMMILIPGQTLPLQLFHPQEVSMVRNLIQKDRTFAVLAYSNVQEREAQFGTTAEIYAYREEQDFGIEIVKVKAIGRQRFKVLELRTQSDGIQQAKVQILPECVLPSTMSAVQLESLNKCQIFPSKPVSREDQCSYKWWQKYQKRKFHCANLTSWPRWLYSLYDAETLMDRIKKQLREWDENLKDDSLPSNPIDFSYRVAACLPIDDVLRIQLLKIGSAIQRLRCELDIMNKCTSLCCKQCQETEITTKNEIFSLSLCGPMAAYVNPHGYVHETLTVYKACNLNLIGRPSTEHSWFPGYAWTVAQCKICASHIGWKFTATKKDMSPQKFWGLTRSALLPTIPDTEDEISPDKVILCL
T1 sequence (Q16531 whole entry partner): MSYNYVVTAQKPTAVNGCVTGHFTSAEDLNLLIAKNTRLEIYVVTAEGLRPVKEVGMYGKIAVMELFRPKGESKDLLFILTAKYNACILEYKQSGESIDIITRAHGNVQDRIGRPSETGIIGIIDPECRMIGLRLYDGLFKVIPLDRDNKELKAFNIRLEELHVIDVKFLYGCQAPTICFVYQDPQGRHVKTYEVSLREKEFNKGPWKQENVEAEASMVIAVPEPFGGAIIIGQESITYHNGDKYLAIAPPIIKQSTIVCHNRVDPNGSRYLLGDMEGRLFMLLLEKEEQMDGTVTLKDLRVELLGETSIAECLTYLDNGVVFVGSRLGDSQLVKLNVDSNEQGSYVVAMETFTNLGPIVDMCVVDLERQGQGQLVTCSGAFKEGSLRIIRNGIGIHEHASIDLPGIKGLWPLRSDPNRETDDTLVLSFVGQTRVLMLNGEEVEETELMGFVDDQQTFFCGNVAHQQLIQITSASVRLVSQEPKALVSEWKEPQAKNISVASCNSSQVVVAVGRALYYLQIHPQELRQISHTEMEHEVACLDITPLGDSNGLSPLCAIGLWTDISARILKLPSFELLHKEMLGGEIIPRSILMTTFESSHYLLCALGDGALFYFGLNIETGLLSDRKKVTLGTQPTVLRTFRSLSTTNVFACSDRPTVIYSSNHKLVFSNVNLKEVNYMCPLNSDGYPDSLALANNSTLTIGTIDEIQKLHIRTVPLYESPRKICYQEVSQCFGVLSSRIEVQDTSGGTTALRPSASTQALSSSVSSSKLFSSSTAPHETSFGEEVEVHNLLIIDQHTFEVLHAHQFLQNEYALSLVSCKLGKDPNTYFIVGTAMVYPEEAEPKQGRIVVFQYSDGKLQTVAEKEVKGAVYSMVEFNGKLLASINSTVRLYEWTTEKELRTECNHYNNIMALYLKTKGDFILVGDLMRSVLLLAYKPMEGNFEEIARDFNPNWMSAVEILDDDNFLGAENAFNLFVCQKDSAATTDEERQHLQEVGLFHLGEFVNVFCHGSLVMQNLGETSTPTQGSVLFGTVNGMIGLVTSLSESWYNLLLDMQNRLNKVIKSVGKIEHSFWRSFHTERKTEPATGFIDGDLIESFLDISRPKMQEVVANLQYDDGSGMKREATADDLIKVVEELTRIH
T2 sequence (Q9UKT9 whole entry): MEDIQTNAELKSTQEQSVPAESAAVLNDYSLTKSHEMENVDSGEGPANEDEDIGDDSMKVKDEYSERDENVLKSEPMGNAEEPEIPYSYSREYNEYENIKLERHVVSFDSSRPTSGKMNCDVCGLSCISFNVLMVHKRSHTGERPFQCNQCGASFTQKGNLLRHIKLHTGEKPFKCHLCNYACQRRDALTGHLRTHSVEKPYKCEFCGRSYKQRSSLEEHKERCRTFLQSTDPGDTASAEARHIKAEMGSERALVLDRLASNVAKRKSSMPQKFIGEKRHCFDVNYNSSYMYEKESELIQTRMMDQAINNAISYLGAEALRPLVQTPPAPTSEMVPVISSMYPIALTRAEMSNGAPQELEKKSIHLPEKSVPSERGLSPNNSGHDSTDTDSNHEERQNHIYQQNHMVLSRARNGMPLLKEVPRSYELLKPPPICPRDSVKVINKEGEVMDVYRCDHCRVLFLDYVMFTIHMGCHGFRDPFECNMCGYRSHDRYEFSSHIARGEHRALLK
T2 sequence (Q96SW2 whole entry): as the sequence (Q96SW2 whole entry) above
T2 sequence (Q16531 whole entry partner): as the sequence (Q16531 whole entry partner) above

Q: Which Ikaros degradation [1] does the source give for `NC(=O)c1ncc(N2CCCCC2)nc1Nc1ccc(C2CCN(C[C@@H]3CCN(c4ccc5c(c4)C(=O)N(C4CCC(=O)NC4=O)C5=O)C3)CC2)cc1` (stereo partly shown) [Compound 149] here?
A: Its Ikaros degradation is “degraded”.

Q: What about the “clinical activity / benefit in CLL patients” value ([2]; CLL patients with prior therapy (median of six prior treatments), 100 mg, FIG. 4) of the same compound?
A: Its value is “durable benefit; also recorded: showed clinical activity”.

Q: And the “nodal reductions and/or lymphocytosis” value ([2]; all evaluable CLL patients, FIG. 5)?
A: The value was “nodal reductions and/or lymphocytosis observed in all patients treated”.

Q: And the “responses in BTK inhibitor-resistant CLL patients” value ([2]; evaluable CLL patients, FIG. 5)?
A: Its value is “responses in patients with resistance mutations to covalent and non-covalent BTK inhibitors”.

Q: And the “degradation of mutant BTK” value [3]?
A: Its value is “degrades multiple novel BTK mutations emerging post BTKi-treatment”.

Q: What about the “steady state plasma concentrations achieved by” value [4] of the same compound?
A: The value was at most 8 days.

Q: And the “Anemia, Grade ≥ 3” value ([5]; 100 mg (N = 10))?
A: The value was 1 (10%) n (%).

Q: And the “Clostridium difficile colitis, Grade ≥ 3” value ([5]; 100 mg (N = 10))?
A: Its value is 0 (0%) n (%).

Q: What about the “Clostridium difficile infection, Grade ≥ 3” value ([5]; 100 mg (N = 10)) of the same compound?
A: The value was 0 (0%) n (%).

Q: What about the “Cognitive disorder, Grade ≥ 3” value ([5]; 100 mg (N = 10)) of the same compound?
A: Its value is 0 (0%) n (%).

Q: And the “Dyspnea, Grade ≥ 3” value ([5]; 100 mg (N = 10))?
A: The value was 0 (0%) n (%).

Q: What about the “Hypertension, Grade ≥ 3” value ([5]; 100 mg (N = 10)) of the same compound?
A: The value was 0 (0%) n (%).

Q: And the “Neutropenia, Grade ≥ 3” value ([5]; 100 mg (N = 10))?
A: Its value is 1 (10%) n (%).

Q: What about the “Pain in extremity, Grade ≥ 3” value ([5]; 100 mg (N = 10)) of the same compound?
A: The value was 0 (0%) n (%).

Q: And the “Upper resp. tract infection, Grade ≥ 3” value ([5]; 100 mg (N = 10))?
A: Its value is 0 (0%) n (%).

Q: And the “Anemia, Grade ≥ 3” value ([5]; 200 mg (N = 6))?
A: Its value is 1 (16.7%) n (%).

Q: What about the “Clostridium difficile colitis, Grade ≥ 3” value ([5]; 200 mg (N = 6)) of the same compound?
A: Its value is 1 (16.7%) n (%).

Q: And the “Clostridium difficile infection, Grade ≥ 3” value ([5]; 200 mg (N = 6))?
A: Its value is 1 (16.7%) n (%).

Q: And the “Cognitive disorder, Grade ≥ 3” value ([5]; 200 mg (N = 6))?
A: Its value is 0 (0%) n (%).

Q: What about the “Dyspnea, Grade ≥ 3” value ([5]; 200 mg (N = 6)) of the same compound?
A: Its value is 1 (16.7%) n (%).

Q: What about the “Hypertension, Grade ≥ 3” value ([5]; 200 mg (N = 6)) of the same compound?
A: Its value is 1 (16.7%) n (%).

Q: What about the “Neutropenia, Grade ≥ 3” value ([5]; 200 mg (N = 6)) of the same compound?
A: Its value is 3 (50%) n (%).

Q: What about the “Pain in extremity, Grade ≥ 3” value ([5]; 200 mg (N = 6)) of the same compound?
A: Its value is 0 (0%) n (%).

Q: And the “Upper resp. tract infection, Grade ≥ 3” value ([5]; 200 mg (N = 6))?
A: The value was 1 (16.7%) n (%).

Q: What about the “Anemia, Grade ≥ 3” value ([5]; 300 mg (N = 3)) of the same compound?
A: The value was 0 (0%) n (%).

Q: And the “Clostridium difficile colitis, Grade ≥ 3” value ([5]; 300 mg (N = 3))?
A: The value was 0 (0%) n (%).

Q: And the “Clostridium difficile infection, Grade ≥ 3” value ([5]; 300 mg (N = 3))?
A: The value was 0 (0%) n (%).

Q: What about the “Cognitive disorder, Grade ≥ 3” value ([5]; 300 mg (N = 3)) of the same compound?
A: Its value is 1 (33.3%) n (%).

Q: And the “Dyspnea, Grade ≥ 3” value ([5]; 300 mg (N = 3))?
A: The value was 0 (0%) n (%).

Q: And the “Hypertension, Grade ≥ 3” value ([5]; 300 mg (N = 3))?
A: Its value is 0 (0%) n (%).

Q: And the “Neutropenia, Grade ≥ 3” value ([5]; 300 mg (N = 3))?
A: The value was 2 (66.7%) n (%).

Q: And the “Pain in extremity, Grade ≥ 3” value ([5]; 300 mg (N = 3))?
A: Its value is 1 (33.3%) n (%).

Q: And the “Upper resp. tract infection, Grade ≥ 3” value ([5]; 300 mg (N = 3))?
A: The value was 0 (0%) n (%).

Q: What about the dose limiting toxicity ([5]; 300 mg, a CLL patient, cognitive AE believed related to immunomodulatory activity) of the same compound?
A: Its dose limiting toxicity is “Dose limiting toxicity was observed”.

Q: What about the “dose limiting toxicity (DLT) or serious adverse event (SAE)” value ([5]; DLBCL patient, 300 mg, 5 months and ongoing) of the same compound?
A: The value was “no dose limiting toxicity (DLT) or serious adverse event (SAE) was observed”.

Q: What about the “atrial fibrillation adverse events” value ([5]; at 100 mg in a patient with MCL and at 200 mg in a patient with CLL) of the same compound?
A: The value was “Two AEs of lower grade atrial fibrillation were observed”.

Q: And the “tolerability / dose limiting toxicities” value ([5]; humans, 100 mg and 200 mg per dose)?
A: Its value is “well-tolerated with no dose limiting toxicities”.

Q: What about the “Deauville five-point scale (5PS)” value ([6]; DLBCL patient, 16-week assessment, 5 at screening) of the same compound?
A: The value was 2.

Q: And the “maximum standard uptake value (Max SUV)” value ([6]; DLBCL patient, 16-week assessment, 17.6 at screening)?
A: Its value is 2.5.

Q: And the “response per Lugano criteria at 8 weeks” value ([6]; heavily pre-treated non-GCB (ABC subtype) DLBCL patient)?
A: The value was “complete response”.

Q: And the “response at the 16-week assessment (FDG-PET CT Scan Disease Assessment)” value ([6]; non-GCB (ABC subtype) DLBCL patient, FIG. 9)?
A: Its value is “complete confirmed response”.

Q: What about the Aiolos degradation [7] of the same compound?
A: Its Aiolos degradation is “degraded”.

Q: And the “killing of lymphoma cells” value [8]?
A: Its value is “kills lymphoma cells harboring BTK-C481S mutation”.

Source: US12377106B2, “Piperidinylpyrazine-carboxamide compounds for treating and preventing cancer and for degrading BTK” (NURIX THERAPEUTICS, INC., priority 2021, dated 2025)
